Molecules are shown by their SMILES. “Also recorded” adds a separate entry of the source. Structures can show the parent of a compound that is named as a salt. Square brackets hold non-standard residues; d marks the D form. Peptide text beside a SMILES is read from it. * marks the point of attachment. pY = N[C@@H](Cc1ccc(OP(=O)(O)O)cc1)C(=O)O; Hexanoyl = CCCCCC(=O)*; Ahx = NCCCCCC(=O)O

Common to all, as to assay type: physicochemical
The nature of data set [1]: Sauna experiments (solvent vapour in sealed vial), XRPD analysis. The settings on record: for XRPD after sauna experiments: various solvents, 1 or 7 days. The protocol:
(§1) Sample is applied directly on a silicon plate holder. The X-ray powder diffraction pattern was measured with Philips X′Pert PRO X-ray powder diffractometer, equipped with Cu irradiation source=1.54184 Å (Ångström), X'Celerator (2.022° 2θ) detector. Scanning parameters: angle range: 3-40 deg., step size 0.0167, time per step 37 s, continuous scan.
(§2) Samples of Fosgonimeton mono sodium salt form N2 were subjected to slurry and to sauna conditions in various conditions. In the slurry experiments, 50 mg of the sample is placed in a 2 mL glass vial with 0.5 mL of solvent. Obtained suspension is stirred at ambient temperature for 1 or 7 days. XRPD analysis is performed on crystalline material after filtration. In the sauna experiments, 50 mg of crystalline material is placed in an Eppendorf tube. 0.5 mL of solvent is placed in a sealed 10 mL glass vial, along with Eppendorf tube. Crystalline material is checked by XRPD analysis after 1 or 7 days.
as §2, with “N5” for “N2”
as §2, with “potassium” for “sodium”, “K1” for “N2”
(§3) Samples of Fosgonimeton form 1 were subjected to slurry and to Sauna conditions in various conditions. In the slurry experiments, 50 mg of the sample is placed in a 2 mL glass vial with 0.5 mL of solvent. Obtained suspension is stirred at ambient temperature for 1 or 7 days. XRPD analysis is performed on crystalline material after filtration. In the sauna experiments, 50 mg of crystalline material is placed in an Eppendorf tube. 0.5 mL of solvent is placed in a sealed 10 mL glass vial, along with Eppendorf tube. Crystalline material is checked by XRPD analysis after 1 or 7 days.

The nature of data set [2]: Slurry experiments in solvent, XRPD analysis after filtration. The settings on record: for XRPD after slurry experiments: various solvents, ambient temperature, 1 or 7 days. The protocol: as §1, §2
as §2, with “N5” for “N2”
as §2, with “potassium” for “sodium”, “K1” for “N2”
as §3

The nature of data set [3]: Heating stress test, XRPD analysis. The following applies: 100° C./60 minutes. The protocol: as §1
A sample of Fosgonimeton mono sodium salt form N2 was subjected to heating to 100° C. for 60 minutes.
A sample of Fosgonimeton mono sodium salt form N5 was subjected to heating to 100° C. for 60 minutes.
A sample of Fosgonimeton mono potassium salt form K1 was subjected to heating to 100° C. for 60 minutes.
A sample of Fosgonimeton form 1 was subjected to heating to 100° C. for 60 minutes.

A short description of data set [4]: Pressure stress test (Specac Hydraulic Press), XRPD analysis. The settings on record: 2 tons/2 minutes. The protocol:
as §1
A sample of Fosgonimeton mono sodium salt form N2 was subjected to a pressure of 2 ton (Specac Hydraulic Press, set to 2 tons).
A sample of Fosgonimeton mono sodium salt form N5 was subjected to a pressure of 2 ton (Specac Hydraulic Press, set to 2 tons).
A sample of Fosgonimeton mono potassium salt form K1 was subjected to a pressure of 2 tons (Specac Hydraulic Press, set to 2 tons).
A sample of Fosgonimeton form 1 was subjected to a pressure of 2 tons (Specac Hydraulic Press, set to 2 tons).

On to `CCCCCC(=O)N[C@@H](Cc1ccc(OP(=O)(O)O)cc1)C(=O)N[C@H](C(=O)NCCCCCC(N)=O)[C@@H](C)CC` [Fosgonimeton mono potassium salt form K1, Fosgonimeton mono potassium salt] (Hexanoyl-[pY]-Ile-[Ahx]-NH2), for which the “XRPD after Sauna” value in data set [1] (2-Propanol/20-25° C./7 days) is listed as “No polymorphic change”; in data set [1] (Acetone/20-25° C./7 days), “No polymorphic change”; in data set [1] (Ethanol, 96%/20-25° C./7 days), “No polymorphic change”; in data set [1] (Ethyl acetate/20-25° C./7 days), “No polymorphic change”; in data set [1] (Water/20-25° C./7 days) it was “No polymorphic change”. Moreover, the “XRPD after sauna experiments” value in data set [1] was “no change in the starting material”. The “XRPD after Slurry” value in data set [2] (2-Propanol/20-25° C./7 days) is listed as “No polymorphic change”; in data set [2] (Acetone/20-25° C./7 days), “No polymorphic change”; in data set [2] (Ethanol, 96%/20-25° C./7 days), “No polymorphic change”; in data set [2] (Ethyl acetate/20-25° C./7 days) it was “No polymorphic change”. In addition, in data set [2], the “XRPD after slurry experiments” value was “no change in the starting material”. Also, in data set [3] (mono potassium salt), the “XRPD after Heating” value is reported as “no polymorphic conversion; also recorded: No polymorphic change”. The “XRPD after Pressure” value in data set [4] (mono potassium salt) was “no polymorphic conversion; also recorded: No polymorphic change”.

Turning to `CCCCCC(=O)N[C@@H](Cc1ccc(OP(=O)(O)O)cc1)C(=O)N[C@H](C(=O)NCCCCCC(N)=O)[C@@H](C)CC` [Fosgonimeton form 1, [4-[(2S)-3-[[(2S,3S)-1-[(6-amino-6-oxohexyl)amino]-3-methyl-1-oxopentan-2-yl]amino]-2-(hexanoylamino)-3-oxopropyl]phenyl]dihydrogen phosphate] (Hexanoyl-[pY]-Ile-[Ahx]-NH2), the “XRPD after Slurry” value in data set [2] (2-Propanol/20-25° C./1 day) is reported as “No polymorphic change”; in data set [2] (Acetone/20-25° C./1 day) it was “No polymorphic change”; in data set [2] (Ethanol, 96%/20-25° C./1 day) it was “No polymorphic change”; in data set [2] (Ethyl acetate/20-25° C./1 day), “No polymorphic change”. For the same molecule, the “XRPD after Heating” value in data set [3] is “no polymorphic conversion; also recorded: No polymorphic change”. Also, the “XRPD after Pressure” value in data set [4] is “no polymorphic conversion; also recorded: No polymorphic change”.

`CCCCCC(=O)N[C@@H](Cc1ccc(OP(=O)(O)O)cc1)C(=O)N[C@H](C(=O)NCCCCCC(N)=O)[C@@H](C)CC` [Fosgonimeton mono sodium salt form N5, Fosgonimeton mono sodium salt] (Hexanoyl-[pY]-Ile-[Ahx]-NH2): the “XRPD after Sauna” value in data set [1] (2-Propanol/20-25° C./7 days) was “No polymorphic change”; in data set [1] (Ethanol, 96%/20-25° C./7 days), “No polymorphic change”; in data set [1] (Ethyl acetate/20-25° C./7 days), “No polymorphic change”. Further, the “XRPD after sauna experiments” value in data set [1] was “no change in the starting material”. The “XRPD after Slurry” value in data set [2] (2-Propanol/20-25° C./1 day), in data set [2] (Acetone/20-25° C./7 days) and in data set [2] (Ethyl acetate/20-25° C./1 day) was “No polymorphic change” each time. Besides, the “XRPD after slurry experiments” value in data set [2] is reported as “no change in the starting material”. Also, in data set [3] (mono sodium salt), the “XRPD after Heating” value was “no polymorphic conversion”. Besides, the “XRPD after Pressure” value in data set [4] (mono sodium salt) is listed as “no polymorphic conversion; also recorded: No polymorphic change”.

For `CCCCCC(=O)N[C@@H](Cc1ccc(OP(=O)(O)O)cc1)C(=O)N[C@H](C(=O)NCCCCCC(N)=O)[C@@H](C)CC` [Fosgonimeton mono sodium salt form N2, Fosgonimeton mono sodium salt] (Hexanoyl-[pY]-Ile-[Ahx]-NH2), the “XRPD after Sauna” value is on record as “No polymorphic change” in data set [1] (2-Propanol/20-25° C./7 days); “No polymorphic change” in data set [1] (Acetone/20-25° C./7 days); “No polymorphic change” in data set [1] (Ethanol, 96%/20-25° C./7 days); “No polymorphic change” in data set [1] (Ethyl acetate/20-25° C./7 days); “No polymorphic change” in data set [1] (Water/20-25° C./7 days). Moreover, the “XRPD after sauna experiments” value in data set [1] is “no change in the starting material”. In addition, the “XRPD after Slurry” value is “No polymorphic change” in data set [2] (2-Propanol/20-25° C./1 day); “No polymorphic change” in data set [2] (Acetone/20-25° C./1 day); “No polymorphic change” in data set [2] (Acetone/20-25° C./7 days); “No polymorphic change” in data set [2] (Ethanol, 96%/20-25° C./1 day); “No polymorphic change” in data set [2] (Ethanol, 96%/20-25° C./7 days); “No polymorphic change” in data set [2] (Ethyl acetate/20-25° C./1 day). Besides, the “XRPD after Slurry” value in data set [2] (Water/20-25° C./7 days) is reported as “No polymorphic change”. The “XRPD after slurry experiments” value in data set [2] is given as “no change in the starting material”. Moreover, the “XRPD after Heating” value in data set [3] (mono sodium salt) is given as “no polymorphic conversion; also recorded: No polymorphic change”. For the same molecule, the “XRPD after Pressure” value in data set [4] (mono sodium salt) is “no polymorphic conversion; also recorded: No polymorphic change”.

(Values after patent publication US20260234183A1, “SOLID STATE FORMS OF FOSGONIMETON AND SALTS THEREOF” (ASSIA CHEMICAL INDUSTRIES LTD., priority 2023, published 2026).)
